Results from patent publication US20250214932A1, “T-TYPE CALCIUM CHANNEL MODULATORS COMPRISING AN AZASPIRONONANE CORE AND METHODS OF USE THEREOF” (Praxis Precision Medicines, Inc., priority 2022, published 2025).

Legend:
[1] = molecular target: Human Cav3.1 (Homo sapiens (Human), UniProt O43497); experiment: Human Cav3.1 calcium channel patch clamp assay (SyncroPatch 384PE, HEK-293 natClytin/TASK1+Cav3.1 cell line); type: cell-based; settings: voltage dependent block (VDB); read-out: Cav3.1 (VDB) IC50
Chain of Human Cav3.1 (O43497 whole entry): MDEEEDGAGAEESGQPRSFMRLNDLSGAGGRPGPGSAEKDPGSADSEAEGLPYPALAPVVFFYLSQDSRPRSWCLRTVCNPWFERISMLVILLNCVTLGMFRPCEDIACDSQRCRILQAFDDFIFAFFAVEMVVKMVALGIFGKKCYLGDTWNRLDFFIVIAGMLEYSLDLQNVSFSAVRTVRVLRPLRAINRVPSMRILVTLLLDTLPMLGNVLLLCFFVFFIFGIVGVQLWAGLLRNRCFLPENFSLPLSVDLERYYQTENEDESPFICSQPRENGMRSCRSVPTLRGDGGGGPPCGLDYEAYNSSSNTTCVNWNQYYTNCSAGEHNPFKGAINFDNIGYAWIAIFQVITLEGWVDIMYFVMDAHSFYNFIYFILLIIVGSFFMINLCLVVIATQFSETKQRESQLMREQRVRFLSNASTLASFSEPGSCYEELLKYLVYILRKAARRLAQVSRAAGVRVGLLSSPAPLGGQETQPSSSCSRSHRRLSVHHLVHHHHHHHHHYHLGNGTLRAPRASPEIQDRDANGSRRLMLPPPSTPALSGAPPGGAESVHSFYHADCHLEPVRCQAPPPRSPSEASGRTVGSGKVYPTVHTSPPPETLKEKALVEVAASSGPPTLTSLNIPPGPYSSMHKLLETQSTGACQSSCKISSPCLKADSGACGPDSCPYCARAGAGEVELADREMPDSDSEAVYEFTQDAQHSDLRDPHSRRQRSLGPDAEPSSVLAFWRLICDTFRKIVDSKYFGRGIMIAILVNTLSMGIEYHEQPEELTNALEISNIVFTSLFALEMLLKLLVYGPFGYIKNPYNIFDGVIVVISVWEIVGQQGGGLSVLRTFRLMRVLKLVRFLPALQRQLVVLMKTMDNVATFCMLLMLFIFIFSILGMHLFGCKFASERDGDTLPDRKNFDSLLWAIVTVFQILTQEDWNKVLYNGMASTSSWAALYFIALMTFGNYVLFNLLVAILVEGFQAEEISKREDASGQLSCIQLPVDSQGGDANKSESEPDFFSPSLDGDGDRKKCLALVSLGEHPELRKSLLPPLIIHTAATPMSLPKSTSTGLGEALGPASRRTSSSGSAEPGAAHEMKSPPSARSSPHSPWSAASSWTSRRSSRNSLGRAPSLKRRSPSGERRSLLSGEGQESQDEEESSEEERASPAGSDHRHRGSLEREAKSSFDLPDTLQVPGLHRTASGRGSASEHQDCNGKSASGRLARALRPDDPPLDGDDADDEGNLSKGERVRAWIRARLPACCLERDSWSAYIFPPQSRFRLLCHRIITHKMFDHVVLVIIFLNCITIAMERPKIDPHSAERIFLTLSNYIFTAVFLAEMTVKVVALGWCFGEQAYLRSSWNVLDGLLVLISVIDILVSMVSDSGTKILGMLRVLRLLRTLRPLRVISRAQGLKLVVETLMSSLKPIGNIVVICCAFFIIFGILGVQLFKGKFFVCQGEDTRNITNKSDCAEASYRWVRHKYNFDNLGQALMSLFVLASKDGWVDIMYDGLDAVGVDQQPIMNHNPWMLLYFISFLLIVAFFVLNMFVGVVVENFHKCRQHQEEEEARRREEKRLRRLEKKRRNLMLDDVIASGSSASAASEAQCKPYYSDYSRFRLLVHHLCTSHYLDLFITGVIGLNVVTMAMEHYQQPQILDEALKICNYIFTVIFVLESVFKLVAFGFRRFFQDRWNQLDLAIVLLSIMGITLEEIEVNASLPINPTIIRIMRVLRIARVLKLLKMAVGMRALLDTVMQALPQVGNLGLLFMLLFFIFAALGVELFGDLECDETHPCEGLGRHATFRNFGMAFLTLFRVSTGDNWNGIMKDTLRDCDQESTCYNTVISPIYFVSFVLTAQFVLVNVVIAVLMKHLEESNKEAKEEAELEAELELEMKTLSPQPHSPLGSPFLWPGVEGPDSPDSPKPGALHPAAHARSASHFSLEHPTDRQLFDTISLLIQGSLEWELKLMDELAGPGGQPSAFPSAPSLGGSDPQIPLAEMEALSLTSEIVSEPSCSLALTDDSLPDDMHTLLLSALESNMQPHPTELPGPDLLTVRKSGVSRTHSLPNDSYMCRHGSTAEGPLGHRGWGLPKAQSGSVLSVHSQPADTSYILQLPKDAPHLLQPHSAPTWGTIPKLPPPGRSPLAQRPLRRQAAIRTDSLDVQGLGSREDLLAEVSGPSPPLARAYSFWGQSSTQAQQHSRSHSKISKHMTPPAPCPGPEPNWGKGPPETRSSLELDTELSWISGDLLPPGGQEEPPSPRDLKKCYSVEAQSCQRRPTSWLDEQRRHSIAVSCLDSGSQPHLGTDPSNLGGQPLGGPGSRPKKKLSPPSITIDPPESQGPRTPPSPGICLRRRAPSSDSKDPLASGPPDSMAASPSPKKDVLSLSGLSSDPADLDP

[2] = test system: absence seizures; settings: patients treated with either of these drugs; cited from earlier work

| SMILES | IC50 [1] [nM] | intolerable side effects, patients affected [2] [%] |
| --- | --- | --- |
| O=C(NC12CCC(CC1)CC2)C1CCC2(CC1)CN(CC1(O)CCC(F)(F)CC1)C2 [Example 155] | 606 | – |
| COc1cc(NC(=O)C2CCC3(CC2)CN(CC(=O)NC(C)(C)C)C3)ccc1F [Example 156] | 300 | – |
| CC(C)(C)CCN1CC2(CCC(C(=O)Nc3cc(F)cc(Cl)c3)CC2)C1 [Example 161] | 252 | – |
| CCCC(CCC)C(=O)O [valproate] | – | 24 |

Now from value to molecule, other results behind:

| IC50 [1] [nM] | SMILES | intolerable side effects, patients affected [2] [%] |
| --- | --- | --- |
| 129 | COc1cc(NC(=O)C2CCC3(CC2)CN(CC(=O)NC(C)(C)C)C3)ccc1Cl [Example 157] | – |
| 162 | COc1cc(NC(=O)C2CCC3(CC2)CN(CC(=O)NC2(C(F)(F)F)CC2)C3)ccc1Cl [Example 158] | – |
| 159 | COc1cc(Cl)cc(NC(=O)C2CCC3(CC2)CN(CC(=O)NC(C)(C)C)C3)c1 [Example 159] | – |
| < 78.2 | COc1cc(Cl)cc(NC(=O)C2CCC3(CC2)CN(CC(=O)NC2(C(F)(F)F)CC2)C3)c1 [Example 160] | – |
